Legend:
ARPE-19 cells = test: H2O2-induced injury in ARPE-19 cells (MTT); assay type: cell-based, human; settings: 3 μg/ml and 10 μg/ml; 400, M and 600 μM H2O2; 24 h
Procedure: MTT assay was used to measure the viability of ARPE-19 cells and HUVECs. 2×10^5 ARPE-19 cells or 5×10^4 HUVECs were seeded in 96-well plates ([…]) and allowed to grow overnight. Negative control was prepared by adding 100 μl medium without cells. The cells were then treated with fresh medium with COMPOUND I (0.03, 0.1, 0.3, 1, 3 and 10 μg/ml) and/or oxidants (NaIO3, H2O2, t-BHP and NaN3) for 12, 24, or 72 hours (200 μl/well). The vehicle control group was treated with vehicle. 20 μl MTT (5 mg/ml) was added to wells, and incubated for another 4 h. After incubation, the medium was discarded and 100 μl DMSO was added to solubilize formazan produced from MTT by the viable cells. Absorbance was measured at 570 nm using a microplate reader (Bio-Rad Laboratories, Inc., CA). Cells viability was calculated according to the following formula: Viability of cells (%)=(absorbance in tested sample−absorbance in negative control)/(absorbance in vehicle control−absorbance in negative control)×100%.

[1] = test system: Blood-Retinal Barrier Breakdown in Streptozotocin-Induced Diabetic Macular Edema; test: Evans blue leakage (blood-retinal barrier breakdown) in streptozotocin-induced diabetic macular edema; assay type: in vivo, Sprague-Dawley female rats
Procedure: After a 16-hour fast, Sprague-Dawley female rats weighing 200-220 g received a single 60 mg/kg intraperitoneal injection of Streptozotocin (STZ; Sigma-Aldrich, St. Louis, Md.) in 10 mM sodium citrate buffer (pH 4.5; Sigma-Aldrich, St. Louis, Md.). Control rats were fasted and received the buffer alone. Rats with blood glucose levels higher than 375 mg/dL 7 days after receiving STZ were considered to be diabetic. Body weight and blood glucose were detected every week. All experiments were performed in accordance with regulations specified by the Guide for the Care and Handling of Laboratory Animals (NIH Publication no. 85-23). For the treatments, rats were instilled with 0.5% and 1% COMPOUND I eye drops. Both eyes of all rats were instilled with 1 drop of ophthalmic solution 3 times a day for 6 weeks after diabetes production. Rats were treated with 0.5% and 1% COMPOUND I or vehicle solution eye drops 3 times a day for […] after glucose levels determination. Animal care and treatment were followed by the institutional guidelines. After induction of general anesthesia, the right jugular vein and right iliac artery were cannulated with 0.28- and 0.58-mm internal diameter polyethylene tubing, respectively, which were filled with heparinized saline (50 IU heparin/ml saline). Evans blue (Sigma-Aldrich, St. Louis, Md.) was injected through the jugular vein over 10 seconds at a dosage of 45 mg/kg. Immediately after Evans blue infusion, the rats turned visibly blue, confirming their uptake and distribution of the dye. Subsequently, at 15-minute intervals, 0.1 ml blood was drawn from the iliac artery for 2 hours to obtain the time-averaged plasma Evans blue concentration. After the dye had circulated for 120 minutes, the chest cavity was opened, and rats were perfused for 2 minutes via the left ventricle at 37° C. with 0.05 M, pH 3.5, citrate-buffered paraformaldehyde (Sigma-Aldrich, St. Louis, Md.). A pH of 3.5 was used to optimize binding of Evans blue to albumin and the perfusion solution was warmed to 37° C. to prevent vasoconstriction. Immediately after perfusion, both eyes were enucleated and dissected at the equator. The retinas were carefully dissected away under an operating microscope and thoroughly dried in vacuum equipment for 5 hours. The dry weight was used to normalize the quantitation of Evans blue leakage. Evans blue was extracted by incubating each retina in […] formamide (Sigma-Aldrich. St. Louis. Md.) for 18 hours at 70° C. […] The background-subtracted absorbance was determined by measuring each sample at both 620 nm, the absorbance maximum for Evans blue in formamide, and 740 nm, the absorbance minimum. The concentration of dye in the extracts was calculated from a standard curve of Evans blue in formamide. […]

GFAP = GFAP levels in retina, Western Blot, streptozotocin-induced diabetic retinopathy; assay type: in vivo, Sprague-Dawley female rats
Procedure: After a 16-hour fasting, Sprague-Dawley female rats weighing 200-220 g received a single 60 mg/kg intraperitoneal injection of Streptozotocin (STZ; Sigma-Aldrich, St. Louis, Md.) in 10 mM sodium citrate buffer (pH 4.5; Sigma-Aldrich, St. Louis, Md.). Control rats were fasted and received the buffer solution alone. Rats with blood glucose levels higher than 375 mg/dL 7 days after receiving STZ were considered to be diabetic. Diabetic rats were treated with 1% COMPOUND I, 0.5% COMPOUND I or vehicle eye drops 3 time a day for 6 weeks.
After rats were sacrificed as described in last section, eyes were enucleated and bisected. Retinas were peeled from eyecups and immediately homogenized with 0.3 ml ice-cold lysis buffer ([…]; Sigma-Aldrich, St. Louis, Mo.), including 1 μl proteinase inhibitor cocktail ([…]; Sigma-Aldrich, St. Louis, Mo.). The insoluble material was removed by centrifugation at 12,000 g for 20 minutes. Final protein concentrations were determined using a protein assay kit (BCA, Santa Cruz Biotechnology, Santa Cruz, Calif.) according to manufacturer's specifications. The homogenate (80 μg) were separated by NuPAGE Bis-Tris Mini Gels (Invitrogen Life Technologies, Grand Island, N.Y.) and transferred to nitrocellulose membranes by iBlot Gel transfer Device (Invitrogen Life Technologies, Grand Island, N.Y.). The nitrocellulose membranes were treated by BenchPro 4100 Card Processing Station (Invitrogen Life Technologies, Grand Island, N.Y.) according to the instruction of WesternBreeze® Chromogenic Kit-Anti-Rabbit (Invitrogen Life Technologies, Grand Island, N.Y.). The primary antibodies used were anti-GFAP (1:200, Santa Cruz Biotechnology, Santa Cruz, Calif.) and glycealdehyde-3-phosphate dehydrogenase (GAPDH) (1:100), respectively. The Anti-rabbit IgG, AP-linked antibody was used as a second antibody. For quantitative evaluation of the western blot studies, the nitrocellulose membranes were scanned and the optical densities were quantified with analysis software (Pro-gel Analyzer software, Media Cybernetics, Rockville, Md.).

COc1ccc(COc2c(/C=C/C(=O)NO)ccc(OC)c2CC=C(C)C)cc1 [COMPOUND I]
effect on H2O2-induced injuries (ARPE-19 cells): reversed
Evans blue leakage, diabetic vehicle control group as 100% ([1]; 0.5% eye drops 3 times a day): 68%
Evans blue leakage, in words ([1]; 0.5% eye drops 3 times a day): partially
Evans blue leakage, diabetic vehicle control group as 100% ([1]; 1% eye drops 3 times a day): 56%
Evans blue leakage / BRB breakdown, in words ([1]; 1% eye drops 3 times a day, listed as BMX): completely restored
GFAP level (Western Blot), DR animals as 100% (GFAP; 0.5% eye drops tid 6 weeks): 70%
expression of GFAP proteins in retina vs diabetic control, in words (GFAP; 1% and 0.5% tid. for 6 weeks): significantly suppressed
GFAP level (Western Blot), DR rats as 100% (GFAP; 1.0% eye drops tid 6 weeks): 46%

Source: patent US11045435B2, “Methods for treating ocular diseases” (NATUREWISE BIOTECH & MEDICALS CORPORATION, priority 2016, dated 2021)
